Data from patent US8952024B2, “Herbicidal pyrimidone derivatives” (E I du Pont de Nemours and Company, priority 2009, dated 2015).

Columns and labels:
Format in all cases: in vivo
[1] = tested on: barnyardgrass (Echinochloa crus-galli); test: Test A pre-/postemergence plant response
How it was run: (§1)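 Visually rated 0–100 injury (100 = complete control) versus untreated plants, ~10 days in greenhouse. Application pre- (soil spray, loam/sand) and postemergence (2–10 cm, 1–2 leaf stage), same timepoint.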

corn (Zea mays) = test: Test A pre-/postemergence plant response
How it was run: as §1

[2] = tested on: giant foxtail (Setaria faberii); test: Test A pre-/postemergence plant response
How it was run: as §1

[3] = tested on: large crabgrass (Digitaria sanguinalis); test: Test A pre-/postemergence plant response
How it was run: as §1

[4] = tested on: morningglory (Ipomoea spp.); test: Test A pre-/postemergence plant response
How it was run: as §1

[5] = tested on: pigweed (Amaranthus retroflexus); test: Test A pre-/postemergence plant response
How it was run: as §1

[6] = tested on: velvetleaf (Abutilon theophrasti); test: Test A pre-/postemergence plant response
How it was run: as §1

[7] = tested on: wheat (Triticum aestivum); test: Test A pre-/postemergence plant response
How it was run: as §1

[8] = tested on: barnyardgrass (Echinochloa crus-galli); test: Test B flooded paddy test; details: for Plant response rating, Barnyardgrass: Flood (flooded paddy test), 13 to 15 days
How it was run: (§2)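 Ratings are visual, 0–100 (100 = complete control), taken versus untreated controls 13 to 15 days after treatment in the greenhouse. Compound went straight into paddy water held 3 cm above soil, applied to 2-leaf-stage plants of four species.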

[9] = tested on: ducksalad (Heteranthera limosa); test: Test B flooded paddy test; details: for Plant response rating, Ducksalad: Flood (flooded paddy test), 13 to 15 days
How it was run: as §2

rice (Oryza sativa) = test: Test B flooded paddy test; details: for Plant response rating, Rice: Flood (flooded paddy test), 13 to 15 days
How it was run: as §2

[10] = tested on: umbrella sedge (Cyperus difformis); test: Test B flooded paddy test; details: for Plant response rating, Sedge, Umbrella: Flood (flooded paddy test), 13 to 15 days
How it was run: as §2

[11] = Postemergence, 125 g ai/ha, 0 to 100 scale where 0 is no effect and 100 is complete control
[12] = Postemergence, 500 g ai/ha, visual injury, 0 to 100 scale (0 no effect, 100 complete control), approx. ten days
[13] = Preemergence, 125 g ai/ha, 0 to 100 scale where 0 is no effect and 100 is complete control, approximately ten days
[14] = Preemergence, 500 g ai/ha, 0 to 100 scale, 0 = no effect, 100 = complete control
[15] = Postemergence, 125 g ai/ha, visual injury, 0 to 100 scale (0 no effect, 100 complete control), approx. ten days
[16] = 250 g ai/ha, flooded paddy test, visual rating on 0 to 100 scale (0 no effect, 100 complete control) after 13 to 15 days
[17] = 62 g ai/ha, scale of 0 to 100 where 0 is no effect and 100 is complete control
[18] = 125 g ai/ha, scale 0 to 100, 0 is no effect, 100 is complete control
[19] = Flood, 31 g ai/ha, scale 0 to 100 (0 no effect, 100 complete control)

COc1ccc(-n2c(-c3ccccc3)ncc(C(=O)C3=C(O)CCCC3=O)c2=O)c(OC)c1 [Compound 256]
0: Plant response rating, Barnyardgrass [1, 13] | Plant response rating, Corn (corn (Zea mays); [11]) | Plant response rating, Corn (corn (Zea mays); [13]) | Plant response rating, Corn (corn (Zea mays); [14]) | Plant response rating, Foxtail, Giant [2, 13] | Plant response rating, Morningglory [4, 13] | Plant response rating, Pigweed [5, 13] | Plant response rating, Wheat [7, 15] | Wheat plant response rating [7, 12] | Plant response rating, Wheat [7, 13] | Plant response rating, Wheat [7, 14] | Plant response rating, Flood, Barnyardgrass [8, 16] | Plant response rating, Barnyardgrass [8, 17] | Plant response rating, Barnyardgrass [8, 18] | Barnyardgrass plant response rating [8, 19] | Plant response rating, Flood, Rice (rice (Oryza sativa); [16]) | Plant response rating, Rice (rice (Oryza sativa); [17]) | Plant response rating, Rice (rice (Oryza sativa); [18]) | Rice plant response rating (rice (Oryza sativa); [19])
30: Plant response rating, Foxtail, Giant [2, 14] | Plant response rating, Crabgrass, Large [3, 11] | Plant response rating, Morningglory [4, 15] | Ducksalad plant response rating [9, 19] | Sedge, Umbrella plant response rating [10, 19]
90: Barnyardgrass plant response rating [1, 12] | Plant response rating, Pigweed [5, 15] | Plant response rating, Pigweed [5, 14]
40: Plant response rating, Barnyardgrass [1, 11] | Plant response rating, Ducksalad [9, 17] | Plant response rating, Sedge, Umbrella [10, 17]
70: Plant response rating, Barnyardgrass [1, 14] | Foxtail, Giant plant response rating [2, 12]
85: Plant response rating, Flood, Ducksalad [9, 16]
10: Corn plant response rating (corn (Zea mays); [12]) | Plant response rating, Crabgrass, Large [3, 13]
75: Plant response rating, Flood, Sedge, Umbrella [10, 16] | Plant response rating, Sedge, Umbrella [10, 18]
100: Pigweed plant response rating [5, 12] | Plant response rating, Velvetleaf [6, 15] | Velvetleaf plant response rating [6, 12]
80: Crabgrass, Large plant response rating [3, 12] | Plant response rating, Crabgrass, Large [3, 14] | Morningglory plant response rating [4, 12] | Plant response rating, Velvetleaf [6, 14] | Plant response rating, Ducksalad [9, 18]
20: Plant response rating, Foxtail, Giant [2, 15] | Plant response rating, Velvetleaf [6, 13]
50: Plant response rating, Morningglory [4, 14]
